Assay results taken from patent publication US8835420B2, “Azaindole derivatives” (Takeda Pharmaceutical Company Limited, priority 2012, dated 2014).

The compounds below were run against T1, PI3Kδ (recombinant GST-tagged PIK3CD co-expressed with PIK3R1, p85α) (Homo sapiens, UniProt O00329) (assay: PI3Kδ inhibition, modified PIK3CD Adapta TR-FRET kinase assay). Settings: 2 μM ATP, 50 μM PIP2, 1 hour at room temperature, pIC50 = -log(IC50 in M).
T1 construct: The protein is full length and co-expressed with untagged PIK3R1; GST; purchased Invitrogen PV5274
T1 sequence (O00329 whole entry): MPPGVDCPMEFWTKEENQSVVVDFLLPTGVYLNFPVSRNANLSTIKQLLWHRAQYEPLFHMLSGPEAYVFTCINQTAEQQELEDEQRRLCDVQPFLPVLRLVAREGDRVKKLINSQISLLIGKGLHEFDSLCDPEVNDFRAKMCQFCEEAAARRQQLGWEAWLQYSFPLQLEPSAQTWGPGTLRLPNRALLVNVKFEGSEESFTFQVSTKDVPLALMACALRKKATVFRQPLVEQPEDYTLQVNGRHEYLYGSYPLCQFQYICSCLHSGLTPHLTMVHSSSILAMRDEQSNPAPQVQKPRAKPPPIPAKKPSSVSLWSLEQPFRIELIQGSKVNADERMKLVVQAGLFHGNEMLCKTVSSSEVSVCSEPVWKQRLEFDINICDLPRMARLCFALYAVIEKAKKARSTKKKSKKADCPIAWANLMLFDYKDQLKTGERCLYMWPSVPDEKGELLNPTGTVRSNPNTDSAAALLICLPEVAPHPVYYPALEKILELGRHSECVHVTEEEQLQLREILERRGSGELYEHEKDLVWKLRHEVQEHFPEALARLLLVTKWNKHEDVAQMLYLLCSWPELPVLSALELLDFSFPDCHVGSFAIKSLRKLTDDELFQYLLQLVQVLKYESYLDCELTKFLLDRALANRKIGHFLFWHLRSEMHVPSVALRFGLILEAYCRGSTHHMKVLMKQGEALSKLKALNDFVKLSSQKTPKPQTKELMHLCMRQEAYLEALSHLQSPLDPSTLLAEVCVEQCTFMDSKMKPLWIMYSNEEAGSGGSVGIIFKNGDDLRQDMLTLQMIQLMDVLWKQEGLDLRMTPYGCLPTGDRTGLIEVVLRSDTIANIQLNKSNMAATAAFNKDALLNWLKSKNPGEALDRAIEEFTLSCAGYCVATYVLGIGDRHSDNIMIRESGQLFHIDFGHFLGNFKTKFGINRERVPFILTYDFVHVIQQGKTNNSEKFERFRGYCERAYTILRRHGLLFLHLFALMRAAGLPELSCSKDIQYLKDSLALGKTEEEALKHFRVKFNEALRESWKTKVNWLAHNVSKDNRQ
T1 sequence (P27986 whole entry partner): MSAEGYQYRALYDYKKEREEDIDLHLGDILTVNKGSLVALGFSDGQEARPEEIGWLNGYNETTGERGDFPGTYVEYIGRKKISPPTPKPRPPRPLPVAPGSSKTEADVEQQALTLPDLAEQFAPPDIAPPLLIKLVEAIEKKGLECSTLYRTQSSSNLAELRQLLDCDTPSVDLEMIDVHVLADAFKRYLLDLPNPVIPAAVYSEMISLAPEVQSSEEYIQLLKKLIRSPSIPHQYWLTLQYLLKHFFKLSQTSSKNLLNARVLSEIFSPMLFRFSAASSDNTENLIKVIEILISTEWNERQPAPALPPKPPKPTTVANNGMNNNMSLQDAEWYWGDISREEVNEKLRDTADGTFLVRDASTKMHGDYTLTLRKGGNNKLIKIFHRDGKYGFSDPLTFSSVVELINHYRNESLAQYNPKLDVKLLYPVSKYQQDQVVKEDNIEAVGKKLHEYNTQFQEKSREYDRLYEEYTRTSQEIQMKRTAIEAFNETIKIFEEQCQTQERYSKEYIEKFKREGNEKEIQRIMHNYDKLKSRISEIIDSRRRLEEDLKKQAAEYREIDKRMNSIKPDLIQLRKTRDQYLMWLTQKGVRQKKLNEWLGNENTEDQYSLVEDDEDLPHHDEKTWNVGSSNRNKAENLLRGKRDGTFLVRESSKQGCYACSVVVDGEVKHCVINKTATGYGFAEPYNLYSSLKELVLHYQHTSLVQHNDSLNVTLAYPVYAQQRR
Type: biochemical
Description: The activity of compounds as PI3Kδ inhibitors may be determined by a variety of methods, including in vitro and in vivo methods. The following in vitro assay measures a test compound's ability to inhibit PI3Kδ-mediated phosphorylation of PIP2 and ATP.
Recombinant GST-tagged PIK3CD is purchased from Invitrogen (Part Number: PV5274). The protein is full length and co-expressed with untagged PIK3R1, phosphoinositide-3-kinase regulatory subunit 1 (p85α). The protein is stored at −20° C. in 50 mM TRIS (pH 7.5), 150 mM NaCl, 0.5 mM EDTA, 0.02% Triton® X-100, 2 mM DTT, and 50% glycerol.
A modified PIK3CD Adapta® assay (Invitrogen, Carlsbad, Calif.) is used to measure PI3Kδ inhibition of the example compounds. The assay has two phases. In the first phase, kinase reaction components, which include the enzyme (PIK3CD), substrates (PIP2, ATP), test compound (inhibitor), and assay buffer are added to each well, and the reaction is allowed to incubate for a pre-determined period of time. After reaction, a detection solution composed of a Eu (europium)-labeled anti-ADP antibody, Alexa Fluor® 647-labeled ADP tracer, and EDTA (to stop the kinase reaction) is added to each assay well. In this second phase, ADP formed by the kinase reaction displaces the Alexa Fluor® 647-labeled ADP tracer from the antibody, resulting in a decrease in time-resolved fluorescence resonance energy transfer (TR-FRET) signal. In the presence of the inhibitor, the amount of ADP formed by the kinase reaction is reduced, and the resulting intact antibody-tracer interaction maintains a high TR-FRET signal.
The assay uses black Greiner® 384-well plates (784076). The reaction buffer contains 50 mM Hepes (pH 7.5), 3 mM MgCl2, 1 mM EGTA, 100 mM NaCl, 0.03% CHAPS; 2 mM DTT is added fresh prior to each experiment. Enzyme (4 μL, estimated 1.5 nM in buffer) is first added to the wells of the plate. Next, test compounds (2 μL) from a source plate (5% dilution plate) are introduced into the wells. The final DMSO concentration in each assay well is 1%. The dilution plate contains 5% DMSO in the bottom half of columns 23 and 24, which serve as negative (non-inhibited) controls; the top half contains a known inhibitor concentration (positive control) that gives >98% inhibition of the kinase reaction. Other wells contain test compounds serially diluted across the plate 11 times for a total of 12 data points. The kinase reactions are carried out at room temperature and are initiated by the addition of 4 μL of solution containing 2 μM ATP and 50 μM PIP2. Each reaction is stopped after 1 hour±10 minutes via addition of 10 μL stop solution, which contains a final assay concentration of 3 nM Alexa Fluor® 647-labeled ADP tracer, 2 nM Eu-anti-ADP Antibody, and 10 mM EDTA. After allowing the solutions to equilibrate for 30±10 minutes, a PHERAstar plate reader is used to excite the Eu donor (at 337 nm) and to detect emission from the Alexa Fluor® 647 at 665 nm. This emission signal is referenced or “ratioed” to the emission from Eu at 620 nm. The emission ratio (665 nm/620 nm) from each well is collected and converted to percent conversion using a standard curve for the assay conditions: % conversion=B*(C+A−emission ratio)/(emission ratio−C), where “A” and “C” are the maximum and minimum values of the emission ratio obtained from the standard curve of emission ratio vs. % conversion (ATP-ADP); “B” is the emission ratio corresponding to the % conversion at the EC50 value for the ADP Tracer—Eu anti-ADP antibody complex. The percent inhibition for a given inhibitor concentration is computed from % conversion for the reaction and for the positive and negative controls. Corresponding IC50 values are calculated by non-linear curve fitting of the compound concentrations and values of percent inhibition to the standard IC50 equation and are reported as pIC50, i.e., −log(IC50), where IC50 is molar concentration at 50% inhibition.

Compared with `C[C@H](Nc1nc(N)nc(N)c1C#N)c1nc2ccn(C)c2cc1N1CCOCC1` [Example 10, (S)-2,4-Diamino-6-((1-(1-methyl-6-morpholino-1H-pyrrolo[3,2-b]pyridin-5-yl)ethyl)amino)pyrimidine-5-carbonitrile], `C[C@@H](Nc1nc(N)nc(N)c1C#N)c1nc2ccn(C)c2cc1N1CCOCC1` [Example 48, (R)-2,4-Diamino-6-((1-(1-methyl-6-morpholino-1H-pyrrolo[3,2-b]pyridin-5-yl)ethyl)amino)pyrimidine-5-carbonitrile] is higher in IC50: < 0.00251 µM for the first, 0.0794 µM for the second.

Compared with `C[C@H](Nc1nc(O)nc(N)c1C#N)c1nc2ccn(C)c2cc1N1CCOCC1` [Example 8, (S)-4-Amino-2-hydroxy-6-((1-(1-methyl-6-morpholino-1H-pyrrolo[3,2-b]pyridin-5-yl)ethyl)amino)pyrimidine-5-carbonitrile], `C[C@H](Nc1nc(N)nc(N)c1C#N)c1nc2c(O)cn(C)c2cc1N1CCOCC1` [Example 49, (S)-2,4-Diamino-6-((1-(3-hydroxy-1-methyl-6-morpholino-1H-pyrrolo[3,2-b]pyridin-5-yl)ethyl)amino)pyrimidine-5-carbonitrile] is 4-fold lower in IC50: 1 µM for the first, 0.251 µM for the second.

First: C[C@H](Nc1nc(N)nc2[nH]cnc12)c1nc2ccn(C)c2cc1N1CCOCC1 [Example 27, (S)—N^6-(1-(1-Methyl-6-morpholino-1H-pyrrolo[3,2-b]pyridin-5-yl)ethyl)-9H-purine-2,6-diamine]
Second: C[C@H](Nc1nc(N)ncc1Cl)c1nc2ccn(C)c2cc1N1CCOCC1 [Example 5, (S)-5-Chloro-N^4-(1-(1-methyl-6-morpholino-1H-pyrrolo[3,2-b]pyridin-5-yl)ethyl)pyrimidine-2,4-diamine]
The IC50 of the first is 13-fold lower: 0.01 µM for the first, 0.126 µM for the second.

`Cc1nc(N)nc(N[C@@H](C)c2nc3ccn(C)c3cc2-c2ccnc(O)c2)c1C#N` [Example 23, (S)-2-Amino-4-((1-(6-(2-hydroxypyridin-4-yl)-1-methyl-1H-pyrrolo[3,2-b]pyridin-5-yl)ethyl)amino)-6-methylpyrimidine-5-carbonitrile] and `Cc1nc(N)nc(N[C@@H](C)c2nc3ccn(C)c3cc2-c2ccccn2)c1C#N` [Example 24, (S)-2-Amino-4-methyl-6-((1-(1-methyl-6-(pyridin-2-yl)-1H-pyrrolo[3,2-b]pyridin-5-yl)ethyl)amino)pyrimidine-5-carbonitrile] cannot be ordered by IC50: < 0.001 µM for the first, < 0.001 µM for the second.

Compared with `C[C@H](Nc1nc(N)nc(N)c1C#N)c1nc2ccn(C)c2cc1N1CC(F)(F)C1` [Example 44, (S)-2,4-Diamino-6-((1-(6-(3,3-difluoroazetidin-1-yl)-1-methyl-1H-pyrrolo[3,2-b]pyridin-5-yl)ethyl)amino)pyrimidine-5-carbonitrile], `CC(Nc1nc(N)nc(N)c1Cl)c1nc2ccn(C)c2cc1N1CC(F)(F)C1` (stereo not drawn) [Example 38, 5-Chloro-N^4-(1-(6-(3,3-difluoroazetidin-1-yl)-1-methyl-1H-pyrrolo[3,2-b]pyridin-5-yl)ethyl)pyrimidine-2,4,6-triamine] is 79-fold higher in IC50: 0.002 µM for the first, 0.158 µM for the second.

First: CC(Nc1nc(N)nc(N)c1C#N)c1nc2ccn(C)c2cc1N1CC(O)C1 (stereo not drawn) [Example 39, 2,4-Diamino-6-((1-(6-(3-hydroxyazetidin-1-yl)-1-methyl-1H-pyrrolo[3,2-b]pyridin-5-yl)ethyl)amino)pyrimidine-5-carbonitrile]
Second: C[C@@H](Nc1nc(N)nc(N)c1C#N)c1nc2ccn(C)c2cc1N1CC2(COC2)C1 [Example 46, (R)-2,4-Diamino-6-((1-(1-methyl-6-(2-oxa-6-azaspiro[3.3]heptan-6-yl)-1H-pyrrolo[3,2-b]pyridin-5-yl)ethyl)amino)pyrimidine-5-carbonitrile]
The IC50 of the first is lower: < 0.00158 µM for the first, 0.2 µM for the second. The first is the more potent here.

First: C[C@H](Nc1nc(N)nc(N)c1C#N)c1nc2ccn(C)c2cc1-c1ccnn1C [Example 2, (S)-2,4-Diamino-6-((1-(1-methyl-6-(1-methyl-1H-pyrazol-5-yl)-1H-pyrrolo[3,2-b]pyridin-5-yl)ethyl)amino)pyrimidine-5-carbonitrile]
Second: C[C@H](Nc1nc(N)nc(N)c1C#N)c1nc2ccn(C)c2cc1-c1ccnn1C(F)F [Example 32, (S)-2,4-Diamino-6-((1-(6-(1-(difluoromethyl)-1H-pyrazol-5-yl)-1-methyl-1H-pyrrolo[3,2-b]pyridin-5-yl)ethyl)amino)pyrimidine-5-carbonitrile]
The IC50 of the first is 1.6-fold higher: 0.00251 µM for the first, 0.00158 µM for the second. The second is the more potent here.

First: C[C@H](Nc1nc(N)ncc1C#N)c1nc2ccn(C)c2cc1-c1ccnn1C [Example 4, (S)-2-Amino-4-((1-(1-methyl-6-(1-methyl-1H-pyrazol-5-yl)-1H-pyrrolo[3,2-b]pyridin-5-yl)ethyl)amino)pyrimidine-5-carbonitrile]
Second: C[C@H](Nc1nc(N)ncc1Cl)c1nc2ccn(C)c2cc1-c1ccnn1C [Example 1, (S)-5-Chloro-N^4-(1-(1-methyl-6-(1-methyl-1H-pyrazol-5-yl)-1H-pyrrolo[3,2-b]pyridin-5-yl)ethyl)pyrimidine-2,4-diamine]
The IC50 of the first is 2-fold lower: 0.0631 µM for the first, 0.126 µM for the second.

`C[C@H](Nc1nc(N)nc2[nH]cnc12)c1nc2ccn(C)c2cc1-c1ccnn1C` [Example 16, (S)—N^6-(1-(1-Methyl-6-(1-methyl-1H-pyrazol-5-yl)-1H-pyrrolo[3,2-b]pyridin-5-yl)ethyl)-9H-purine-2,6-diamine] and `C[C@H](Nc1nc(N)nc2[nH]cnc12)c1nc2ccn(C)c2cc1-c1ccnn1C1CC1` [Example 36, (S)-N^6-(1-(6-(1-Cyclopropyl-1H-pyrazol-5-yl)-1-methyl-1H-pyrrolo[3,2-b]pyridin-5-yl)ethyl)-9H-purine-2,6-diamine] are within 1.5-fold of each other in IC50: 0.00794 µM for the first, 0.01 µM for the second.

`C[C@H](Nc1nc(N)nc(N)c1C#N)c1nc2ccn(C)c2cc1-c1ccn[nH]1` [Example 13, (S)-2,4-Diamino-6-((1-(1-methyl-6-(1H-pyrazol-5-yl)-1H-pyrrolo[3,2-b]pyridin-5-yl)ethyl)amino)pyrimidine-5-carbonitrile] and `C[C@H](Nc1nc(N)nc(N)c1C#N)c1nc2ccn(C)c2cc1-c1ccccn1` [Example 12, (S)-2,4-Diamino-6-((1-(1-methyl-6-(pyridin-2-yl)-1H-pyrrolo[3,2-b]pyridin-5-yl)ethyl)amino)pyrimidine-5-carbonitrile] are within 1.5-fold of each other in IC50: 0.002 µM for the first, 0.00158 µM for the second.

First: C[C@H](Nc1nc(N)nc2[nH]ncc12)c1nc2ccn(C)c2cc1-c1ccnn1C [Example 18, (S)—N^4-(1-(1-Methyl-6-(1-methyl-1H-pyrazol-5-yl)-1H-pyrrolo[3,2-b]pyridin-5-yl)ethyl)-1H-pyrazolo[3,4-d]pyrimidine-4,6-diamine]
Second: C[C@H](Nc1nc(N)ncc1F)c1nc2ccn(C)c2cc1-c1ccnn1C [Example 7, (S)-5-Fluoro-N^4-(1-(1-methyl-6-(1-methyl-1H-pyrazol-5-yl)-1H-pyrrolo[3,2-b]pyridin-5-yl)ethyl)pyrimidine-2,4-diamine]
The IC50 of the first is 160-fold lower: 0.501 µM for the first, 79.4 µM for the second.

Compared with `C[C@H](Nc1nc(N)nc(N)c1C#N)c1nc2ccn(C)c2cc1C1CCOCC1` [Example 26, (S)-2,4-Diamino-6-((1-(1-methyl-6-(tetrahydro-2H-pyran-4-yl)-1H-pyrrolo[3,2-b]pyridin-5-yl)ethyl)amino)pyrimidine-5-carbonitrile], `C[C@H](Nc1nc(N)nc(N)c1C#N)c1nc2ccn(C)c2cc1N1CCC(C)(O)CC1` [Example 21, (S)-2,4-Diamino-6-((1-(6-(4-hydroxy-4-methylpiperidin-1-yl)-1-methyl-1H-pyrrolo[3,2-b]pyridin-5-yl)ethyl)amino)pyrimidine-5-carbonitrile] is higher in IC50: < 0.002 µM for the first, 0.00501 µM for the second.
